The values that follow are results of earlier work, collected in US20070269478A1, “METHOD OF PREPARING ACELLULARIZED, BIOCOMPATIBLE, IMPLANTABLE MATERIAL” (priority 2006, published 2007).

The conditions of data set [1]: for pK2: amino group, glutamic acid vs. γ-aminobutyric; for pK5: primary amine basicity, glycine vs. metilamine.
The conditions of data set [2]: α-amino acids with acidic side chains.

As to `NCCCC(=O)O` [γ-aminobutyric, 4-aminobutanoic acid], in data set [1], the pK2 is given as 10.56.

For the compound `N[C@@H](CCC(=O)O)C(=O)O` [glutamic acid], the pK2 in data set [1] was 9.76. Besides, in data set [2], the “pH above which there is an excess of negative charge” value was approximately 4.2.

In the case of `CN` [metilamine], the pK5 in data set [1] is given as 10.65.

As to `NCC(=O)O` [glycine], in data set [1], the pK5 was 9.60.

With `N[C@@H](CCS(=O)(=O)O)C(=O)O` [homocysteic acid], the “pH above which there is an excess of negative charge” value in data set [2] is approximately 2.2.
